Where “and” joins values, the source holds several entries; their conditions need not be identical. Equal values may be shown once. Read-outs that look alike come from different tables or passages of the source.
Assays:
[1] = biological target: T1, SERT (Rattus norvegicus, UniProt P31652); assay: Tissue uptake of [18F]FEINT in rats; type: in vivo, Sprague Dawley rat; settings: for Clearance from the hypothalamus: rat
T1 construct: from tissue; host or cells: brain and other tissues of living male Sprague Dawley rats
Description: The in vivo regional brain tissue distribution of [^18F]FEBrNT (Table 2) and [^18F]FEINT Tables 3 and 4) were compared with a preliminary study in rats. […] The hypothalamus to cerebellum ratios for [^18F]FEBrNT were 5.7 at 60 min post injection in comparison to 4.8 for [^18F]FEINT. […] The regional distribution of [^18F]FEBrNT and [^18F]FEINT were next studied in the brain of rhesus monkeys.

[2] = biological target: T2, SERT (Macaca mulatta, UniProt Q9MYX0); assay: PET imaging and fluvoxamine displacement in rhesus monkey; type: in vivo; settings: anesthetized rhesus monkey; thalamus, hypothalamus, pons / midbrain, brain stem
T2 construct: from tissue; host or cells: brain of a living rhesus monkey
Description: FIG. 3 is a graph showing time activity curves of [^18F]FEBrNT in a rhesus monkey in the thalamus (∘), hypothalamus (Δ), pons (⋄) and cerebellum (x) at 0-120 min i.v. post injection.

[3] = biological target: T1, SERT; assay: Ex vivo autoradiographic study in rats; parameters: species or system Sprague Dawley rat
Description: An initial ex vivo autoradiographic study was performed with either [^18F]FEINT or [^18F]FEBrNT in rats to measure brain penetration and regional distribution. A male Sprague Dawley rat was injected with one mCi of no-carrier added either […].

[4] = tested on: SERT sites; assay: In vitro autoradiography, coronal brain slices; type: binding, pig tailed macaque
Description: [^18F]FEINT and [^18F]FEBrNT were incubated with pig tailed macaque coronal brain slices and the slices exposed to film for 30 min. […] Incubation of the brain slices with [^18F]FEINT (FIG. 1) and [^18F]FEBrNT and 10 μM citalopram yielded maximal inhibition (90%) of binding.
The radiosynthesis for [^18F] 10a, [^18F]12a, and [^18F]12b employed the tosylates 9a and 13a,b as the substrates respectively. The tosylate 9a was treated with NCA K[^18F]/K222 for 10 min in 1 mL of CH3CN at 85° C. followed by TFA/CH2Cl2 at 27° C. […] [^18F]FEBrNT and [^18F]FEClNT were synthesized from the tosylates 13a and 13b in a similar manner. [^18F]FEINT and [18F]FEBrNT were incubated with pig tailed macaque coronal brain slices.

[5] = biological target: T3, human NET (Homo sapiens, UniProt P23975); assay: Binding site competition, cells stably transfected with human NET, [3H]nisoxetine; settings: transfected cell lines
T3 construct: expressed in transfected cells

[6] = biological target: T4, human SERT (Homo sapiens, UniProt P31645); assay: Binding site competition, cells stably transfected with human SERT, [3H]citalopram; settings: for Ki / SERT Ki: [3H]citalopram, transfected cell lines; for DAT/SERT selectivity / NET/SERT selectivity: ratio of Ki
T4 construct: expressed in transfected cells

[7] = biological target: T5, human DAT (Homo sapiens, UniProt Q01959); assay: Binding site competition, cells stably transfected with human DAT, [3H]WIN 35,428; settings: [3H]WIN 35428, transfected cell lines
T5 construct: expressed in transfected cells

[8] = tested on: SERT; settings: cited from earlier work
[9] = biological target: T6, 5-HTT (serotonin transporter site) (Homo sapiens, UniProt P31645); assay: Transporter affinity of N-alkyl ZIENT ligands in transfected cell lines, [3H]citalopram; type: binding
T6 construct: expressed in transfected cells
Source text: (§1) In order to determine whether any structural modifications of ZIENT, FEINT, and FEBrNT would still yield high selectivity and specificity for SERT similar to the results seen with ZIENT, FEINT, FEBrNT and FEClNT, various substitutions on the tropane nitrogen and the 2-beta carboxyester position were made and tested in in vitro binding studies.
(§2) These studies provide a variety of new compounds which can be used as imaging agents for visualizing the location and density of serotonin transporter by PET or SPECT imaging.

[10] = biological target: T7, NET (norepinephrine transporter site) (Homo sapiens, UniProt P23975); assay: Transporter affinity of N-alkyl ZIENT ligands in transfected cell lines, [3H]nisoxetine; type: binding
T7 construct: expressed in transfected cells
Source text: as §1, §2

[11] = biological target: T8, DAT (dopamine transporter site) (Homo sapiens, UniProt Q01959); assay: Transporter affinity of N-alkyl ZIENT ligands in transfected cell lines, [125I]TRI-55; type: binding
T8 construct: expressed in transfected cells
Source text: as §1, §2

[12] = Table 3, rat, 60 min after i.v., Fluvoxamine
[13] = Table 3, rat, 60 min after i.v., No block
[14] = Table 4, rat, 30 min after i.v.
[15] = Table 4, rat, 60 min after i.v.
[16] = Table 4, rat, 120 min after i.v.

T1 sequence (P31652 whole entry): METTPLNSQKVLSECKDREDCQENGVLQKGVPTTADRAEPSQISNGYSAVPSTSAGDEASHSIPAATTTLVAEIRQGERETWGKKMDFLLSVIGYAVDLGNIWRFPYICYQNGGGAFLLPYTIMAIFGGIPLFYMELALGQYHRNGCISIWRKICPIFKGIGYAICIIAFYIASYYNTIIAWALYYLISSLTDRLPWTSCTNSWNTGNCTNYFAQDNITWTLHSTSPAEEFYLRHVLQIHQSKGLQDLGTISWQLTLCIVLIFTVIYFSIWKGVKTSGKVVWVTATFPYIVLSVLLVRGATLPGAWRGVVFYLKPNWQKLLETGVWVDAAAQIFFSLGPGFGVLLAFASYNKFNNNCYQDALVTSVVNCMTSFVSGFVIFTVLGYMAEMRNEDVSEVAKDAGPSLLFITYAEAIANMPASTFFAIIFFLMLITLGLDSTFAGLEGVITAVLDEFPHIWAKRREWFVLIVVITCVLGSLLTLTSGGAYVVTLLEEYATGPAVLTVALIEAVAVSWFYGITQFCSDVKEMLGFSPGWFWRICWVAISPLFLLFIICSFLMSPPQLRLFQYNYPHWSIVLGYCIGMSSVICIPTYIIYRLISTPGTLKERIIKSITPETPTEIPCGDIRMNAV
T4 sequence (P31645 whole entry): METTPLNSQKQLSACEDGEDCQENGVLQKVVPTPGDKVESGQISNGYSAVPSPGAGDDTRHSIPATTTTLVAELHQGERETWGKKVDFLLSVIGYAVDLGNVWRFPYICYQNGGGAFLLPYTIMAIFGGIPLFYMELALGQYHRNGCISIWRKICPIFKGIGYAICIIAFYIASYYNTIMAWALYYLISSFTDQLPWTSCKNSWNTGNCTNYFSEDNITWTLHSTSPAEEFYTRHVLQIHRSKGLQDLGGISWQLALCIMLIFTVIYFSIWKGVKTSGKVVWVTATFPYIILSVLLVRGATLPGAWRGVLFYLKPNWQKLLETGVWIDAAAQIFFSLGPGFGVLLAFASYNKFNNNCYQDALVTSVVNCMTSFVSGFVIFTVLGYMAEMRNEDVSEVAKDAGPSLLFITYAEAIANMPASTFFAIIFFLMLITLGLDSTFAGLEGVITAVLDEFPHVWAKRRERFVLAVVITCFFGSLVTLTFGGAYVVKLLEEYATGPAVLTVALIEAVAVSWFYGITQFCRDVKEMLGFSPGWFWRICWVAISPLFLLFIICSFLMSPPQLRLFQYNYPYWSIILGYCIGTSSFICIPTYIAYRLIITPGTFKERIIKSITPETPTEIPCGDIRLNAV
T6 sequence (P31645 whole entry): as above
T8 sequence (Q01959 whole entry): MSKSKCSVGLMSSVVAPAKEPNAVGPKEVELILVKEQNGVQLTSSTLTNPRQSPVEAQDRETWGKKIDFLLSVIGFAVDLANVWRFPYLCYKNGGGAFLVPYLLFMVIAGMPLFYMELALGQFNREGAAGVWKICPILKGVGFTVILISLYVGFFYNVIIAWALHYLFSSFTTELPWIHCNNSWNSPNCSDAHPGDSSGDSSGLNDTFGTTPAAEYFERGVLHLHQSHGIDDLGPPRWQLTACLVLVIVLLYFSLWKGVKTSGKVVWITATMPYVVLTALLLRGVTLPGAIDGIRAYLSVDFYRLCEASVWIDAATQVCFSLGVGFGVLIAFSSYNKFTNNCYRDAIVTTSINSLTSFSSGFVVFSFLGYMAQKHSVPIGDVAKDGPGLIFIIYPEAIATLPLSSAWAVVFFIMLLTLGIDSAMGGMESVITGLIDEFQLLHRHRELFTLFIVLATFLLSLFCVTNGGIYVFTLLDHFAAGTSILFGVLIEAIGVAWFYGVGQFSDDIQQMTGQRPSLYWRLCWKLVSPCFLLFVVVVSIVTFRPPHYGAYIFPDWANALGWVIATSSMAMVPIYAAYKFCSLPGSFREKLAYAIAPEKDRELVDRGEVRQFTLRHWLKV
T5 sequence (Q01959 whole entry): as above
T7 sequence (P23975 whole entry): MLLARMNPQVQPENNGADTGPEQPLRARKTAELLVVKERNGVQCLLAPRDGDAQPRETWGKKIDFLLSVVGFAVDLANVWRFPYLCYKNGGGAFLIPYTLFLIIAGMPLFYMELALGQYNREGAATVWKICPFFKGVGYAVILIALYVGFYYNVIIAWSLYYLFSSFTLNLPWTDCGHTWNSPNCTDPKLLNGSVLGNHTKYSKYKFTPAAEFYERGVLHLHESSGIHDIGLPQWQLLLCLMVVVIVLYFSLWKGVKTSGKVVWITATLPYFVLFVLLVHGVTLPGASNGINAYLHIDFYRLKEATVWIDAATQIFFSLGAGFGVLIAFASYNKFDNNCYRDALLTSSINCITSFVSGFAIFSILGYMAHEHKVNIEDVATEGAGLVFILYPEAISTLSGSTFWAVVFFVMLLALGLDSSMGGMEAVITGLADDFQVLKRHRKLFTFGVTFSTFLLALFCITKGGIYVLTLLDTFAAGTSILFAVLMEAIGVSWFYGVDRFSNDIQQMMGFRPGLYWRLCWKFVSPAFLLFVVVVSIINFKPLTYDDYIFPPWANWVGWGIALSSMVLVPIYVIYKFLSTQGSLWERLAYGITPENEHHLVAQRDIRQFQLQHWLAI
T3 sequence (P23975 whole entry): as above
T2 sequence (Q9MYX0 whole entry): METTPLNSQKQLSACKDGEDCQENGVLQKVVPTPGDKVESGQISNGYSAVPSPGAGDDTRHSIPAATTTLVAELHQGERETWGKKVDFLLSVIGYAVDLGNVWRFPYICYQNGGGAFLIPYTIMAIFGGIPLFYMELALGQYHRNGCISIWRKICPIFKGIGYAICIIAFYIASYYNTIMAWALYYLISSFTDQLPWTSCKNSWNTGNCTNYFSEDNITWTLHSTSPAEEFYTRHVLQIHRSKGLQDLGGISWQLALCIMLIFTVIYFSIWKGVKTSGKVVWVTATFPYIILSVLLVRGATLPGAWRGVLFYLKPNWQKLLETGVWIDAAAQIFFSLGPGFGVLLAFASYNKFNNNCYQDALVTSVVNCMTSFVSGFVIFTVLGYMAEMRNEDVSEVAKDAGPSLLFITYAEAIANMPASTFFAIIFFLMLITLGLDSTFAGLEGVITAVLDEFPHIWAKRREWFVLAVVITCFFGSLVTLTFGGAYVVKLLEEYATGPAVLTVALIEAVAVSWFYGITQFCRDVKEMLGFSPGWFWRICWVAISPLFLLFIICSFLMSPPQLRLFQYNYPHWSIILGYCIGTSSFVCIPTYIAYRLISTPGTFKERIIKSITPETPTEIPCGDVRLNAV

SMILES: COC(=O)C1C2CCC(CC1c1ccc(CC[18F])c(I)c1)N2 (stereo not shown) [[^18F]FEINT]
- Hypothal/(CB) ratio [1, 12]: 3.8
- Striatum/(CB) ratio [1, 12]: 2.0
- Tissue uptake, Blood [1, 12]: 0.07 (0.06-0.08) % dose/g
- Tissue uptake, Cerebellum [1, 12]: 0.1 (0.09-0.12) % dose/g
- Tissue uptake, Cortex [1, 12]: 0.15 (0.15-0.73) % dose/g
- Tissue uptake, Hypothalamus [1, 12]: 0.38 (0.28-0.45) % dose/g
- Tissue uptake, Olf. T. [1, 12]: 0.04 (0.19-0.55) % dose/g
- Tissue uptake, Prefrontal Cortex [1, 12]: 0.18 (0.06-0.41) % dose/g
- Tissue uptake, Striatum [1, 12]: 0.2 (0.16-1.40) % dose/g
- Hypothal/(CB) ratio [1, 13]: 4.8 and 4.6
- Striatum/(CB) ratio [1, 13]: 2.3
- Tissue uptake, Blood [1, 13]: 0.09 (0.09-0.99) % dose/g
- Tissue uptake, Cerebellum [1, 13]: 0.11 (0.11-0.12) % dose/g
- Tissue uptake, Cortex [1, 13]: 0.18 (0.15-0.19) % dose/g
- Tissue uptake, Hypothalamus [1, 13]: 0.5 (0.32-0.77) % dose/g
- Tissue uptake, Olf. T. [1, 13]: 1.46 (1.24-1.65) % dose/g
- Tissue uptake, Prefrontal Cortex [1, 13]: 0.25 (0.21-0.29) % dose/g
- Tissue uptake, Striatum [1, 13]: 0.25 (0.21-0.29) % dose/g
- Hypothal/(CB) ratio ([1]; Table 4, rat, 5 min after i.v.): 1.67
- Striatum/(CB) ratio ([1]; Table 4, rat, 5 min after i.v.): 1.45
- Tissue uptake, Blood ([1]; Table 4, rat, 5 min after i.v.): 0.19 (0.15-0.23)
- Tissue uptake, Bone ([1]; Table 4, rat, 5 min after i.v.): 0.27 (0.23-0.31)
- Tissue uptake, Brain ([1]; Table 4, rat, 5 min after i.v.): 0.65 (0.56-0.75)
- Tissue uptake, Cerebellum ([1]; Table 4, rat, 5 min after i.v.): 0.58 (0.51-0.65)
- Tissue uptake, Cortex ([1]; Table 4, rat, 5 min after i.v.): 0.76 (0.64-0.96)
- Tissue uptake, Hypothalamus ([1]; Table 4, rat, 5 min after i.v.): 0.97 (0.58-1.59)
- Tissue uptake, Pre-frontal Cortex ([1]; Table 4, rat, 5 min after i.v.): 0.75 (0.54-0.87)
- Tissue uptake, Striatum ([1]; Table 4, rat, 5 min after i.v.): 0.84 (0.59-1.20)
- Hypothal/(CB) ratio [1, 14]: 2.87
- Striatum/(CB) ratio [1, 14]: 1.70
- Tissue uptake, Blood [1, 14]: 0.14 (0.13-0.15)
- Tissue uptake, Bone [1, 14]: 0.70 (0.36-0.92)
- Tissue uptake, Brain [1, 14]: 0.35 (0.32-0.40)
- Tissue uptake, Cerebellum [1, 14]: 0.23 (0.22-0.23)
- Tissue uptake, Cortex [1, 14]: 0.36 (0.34-0.40)
- Tissue uptake, Hypothalamus [1, 14]: 0.66 (0.51-0.89)
- Tissue uptake, Pre-frontal Cortex [1, 14]: 0.37 (0.33-0.42)
- Tissue uptake, Striatum [1, 14]: 0.39 (0.29-0.55)
- Hypothal/(CB) ratio [1, 15]: 2.67
- Striatum/(CB) ratio [1, 15]: 2.44
- Tissue uptake, Blood [1, 15]: 0.10 (0.08-0.11)
- Tissue uptake, Bone [1, 15]: 0.95 (0.53-1.17)
- Tissue uptake, Brain [1, 15]: 0.14 (0.12-0.18)
- Tissue uptake, Cerebellum [1, 15]: 0.09 (0.07-0.11)
- Tissue uptake, Cortex [1, 15]: 0.13 (0.10-0.17)
- Tissue uptake, Hypothalamus [1, 15]: 0.24 (0.18-0.30)
- Tissue uptake, Pre-frontal Cortex [1, 15]: 0.14 (0.11-0.19)
- Tissue uptake, Striatum [1, 15]: 0.22 (0.17-0.31)
- Hypothal/(CB) ratio [1, 16]: 2.8 and 2.83
- Striatum/(CB) ratio [1, 16]: 1.7 and 1.67
- Tissue uptake, Blood [1, 16]: 0.63 (0.58-0.68)
- Tissue uptake, Bone [1, 16]: 1.26 (0.94-1.67)
- Tissue uptake, Brain [1, 16]: 0.89 (0.08-0.11)
- Tissue uptake, Cerebellum [1, 16]: 0.06 (0.05-0.08)
- Tissue uptake, Cortex [1, 16]: 0.09 (0.08-0.11)
- Tissue uptake, Hypothalamus [1, 16]: 0.17 (0.26-0.17)
- Tissue uptake, Pre-frontal Cortex [1, 16]: 0.10 (0.09-0.11)
- Tissue uptake, Striatum [1, 16]: 0.10 (0.09-0.13)
- Clearance from the hypothalamus ([1]; at 60 min compared to 5 min post injection): 75%
- Clearance from the hypothalamus ([1]; at 120 min compared to 5 min post injection): 85%
- Regional brain uptake by PET [2]: no visible uptake
- Localization of tracer binding, ex vivo autoradiography ([3]; 1 mCi tracer): localized to the thalamus, hypothalamus, caudate, putamen and amygloid complex
- Effect of fluvoxamine block on tracer binding ([3]; fluvoxamine 5 mg/kg 20 min prior to tracer): maximal inhibition of binding
- Localization of tracer binding in brain slices ([4]; slices exposed to film 30 min): localized to the thalamus, hypothalamus, caudate, amygloid complex, putamen and temporal cortex
- Inhibition of tracer binding to brain slices ([4]; with 10 μM citalopram): 90%

SMILES: COC(=O)C1C2CCC(CC1c1ccc(CCF)c(Cl)c1)N2 (stereo not drawn) [FEClNT, 2β-carbomethoxy-3β-(4-(2-fluoroethyl)-3-chlorophenyl)nortropane]
- Ki ([5]; NET Ki): 117 nM
- Ki [6]: 0.56 nM and 0.12 to 0.56 nM
- SERT Ki [6]: subnanomolar
- DAT/SERT selectivity [6]: 48
- NET/SERT selectivity [6]: 209
- Ki [7]: 27 nM

SMILES: COC(=O)[C@@H]1C2CCC(C[C@@H]1c1ccc(/C=C/I)cc1)N2 (stereo partly shown) [EINT]
- Selectivity for the SERT over the DAT [8]: 500 times
- IC50 ([8]; vs [3H]WIN 35428 (so in the source)): 0.69 nM
- Ki ([5]; read-out: NET Ki): 32 nM
- Ki [6]: 1.15 nM
- Ki [7]: 1.88 nM

SMILES: COC(=O)C1C(c2ccc(C=CI)cc2)CC2CCC1N2CCF (stereo not shown) [N-fluoroethyl ZIENT]
- Ki [9]: 1.28 nM
- Ki [10]: 21 nM
- Ki [11]: 27 nM

SMILES: COC(=O)C1C(c2ccc(C=CI)cc2)CC2CCC1N2C (stereo not shown) [N-methyl ZIENT]
- Ki [9]: 0.48 nM
- Ki [10]: 69 nM
- Ki [11]: 33 nM

SMILES: COC(=O)C1C2CCC(CC1c1ccc(CCF)c(Br)c1)N2 (stereo not drawn) [FEBrNT, 2β-carbomethoxy-3β-(4-(2-fluoroethyl)-3-bromophenyl)nortropane]
- Ki ([5]; NET Ki): 126 nM
- Ki [6]: 0.22 nM and 0.12 to 0.56 nM
- SERT Ki [6]: subnanomolar
- DAT/SERT selectivity [6]: 100
- NET/SERT selectivity [6]: 573
- Ki [7]: 23.2 nM and 23 nM

SMILES: COC(=O)C1C2CCC(CC1c1ccc(C=CI)cc1)N2 (stereo not shown) [ZIENT]
- Ki [9]: 0.25 nM
- Ki ([5]; NET Ki): 24 nM
- Ki [10]: 64 nM
- Ki [6]: 0.031 nM and 0.03 to 0.1 nM and 0.05 nM
- SERT Ki [6]: subnanomolar
- DAT/SERT selectivity [6]: 100 and 116
- NET/SERT selectivity [6]: 484
- Ki [11]: 16 nM
- Ki [7]: 3.47 nM
